The target in the experiment is Mitogen-activated protein kinase 1 (Mus musculus, UniProt P63085). As to the kind of experiment: IMAP Assay: Activated ERK2 activity was determined in the IMAP assay format.

In general, IC50 refers to the midpoint of a concentration-inhibition curve.

Sequence of Mitogen-activated protein kinase 1 (P63085 whole entry): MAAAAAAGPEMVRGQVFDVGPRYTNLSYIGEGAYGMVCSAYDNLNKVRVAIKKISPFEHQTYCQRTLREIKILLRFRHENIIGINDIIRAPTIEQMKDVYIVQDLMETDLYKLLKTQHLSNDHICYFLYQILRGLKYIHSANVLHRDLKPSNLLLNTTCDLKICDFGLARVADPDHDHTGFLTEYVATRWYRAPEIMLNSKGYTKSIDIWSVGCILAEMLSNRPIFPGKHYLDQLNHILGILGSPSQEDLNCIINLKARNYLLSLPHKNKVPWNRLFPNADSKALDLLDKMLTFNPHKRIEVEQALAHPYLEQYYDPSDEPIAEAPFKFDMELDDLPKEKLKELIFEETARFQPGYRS

`COC[C@@]1(C(=O)Nc2ccc3[nH]nc(-c4ccnc(C5CC5)c4)c3c2)CCN(CC(=O)N2CC=C(c3ccc(-c4ncccn4)cc3)CC2)C1` gave an IC50 of 18.1 nM.

(Values after ChEMBL document CHEMBL3638513, “Compounds that are ERK inhibitors” (2013).)
